Measurements from paper PMC12775434, “Ultra-large virtual screening unveils potent agonists of the neuromodulatory orphan receptor GPR139” (Nature Communications, 2025).
“And” between values parts separate entries of the source, which are not always exact repeats. Equal entries are not always repeated.

Molecular target: T1, GPR139 (G12 activation) (Homo sapiens, UniProt Q6DWJ6)
T1 construct: expressed in transfected cells; host or cells: HEK293A (transient, Lipofectamine 2000)
T1 sequence (Q6DWJ6 1-353): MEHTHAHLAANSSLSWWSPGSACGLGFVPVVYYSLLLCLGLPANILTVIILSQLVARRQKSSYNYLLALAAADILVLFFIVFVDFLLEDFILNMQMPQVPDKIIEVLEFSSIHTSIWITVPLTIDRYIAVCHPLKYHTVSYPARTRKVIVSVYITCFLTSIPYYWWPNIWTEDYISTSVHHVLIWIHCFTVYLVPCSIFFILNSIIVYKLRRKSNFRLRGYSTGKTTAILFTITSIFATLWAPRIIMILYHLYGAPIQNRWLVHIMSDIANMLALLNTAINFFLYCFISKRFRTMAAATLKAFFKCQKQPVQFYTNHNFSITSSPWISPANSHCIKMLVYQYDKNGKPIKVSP
Assay: BRET G protein activation (dissociation) assay, G12, HEK293A
Format: cell-based
Details: for Emax: HEK293-A, normalized to JNJ-63533054 (JNJ(S)); for EC50: Supplementary Table 6, read-out: pEC50 G12 (converted); for G protein activation, G12: individual replicates
Procedure: Primary screening and pharmacological characterization of compounds were performed using a CHO-K1 cell line that stably expresses human GPR139 (GPR139-CHOk1). The GPR139-CHOk1 cell line was kindly provided by H. Lundbeck A/S, Denmark[24]. GPR139-CHOk1 cells were grown in Ham’s F-12 Kaighn’s Modification Medium (ThermoFisher #21127030) supplemented with 10% dialyzed fetal bovine serum (US origin, ThermoFisher #26400044), 100 units/mL Penicillin-Streptomycin (ThermoFisher #15140122), and 1 mg/mL Geneticin (ThermoFisher #11811031). […] M1R-CHOk1 cells were purchased from The Missouri S&T cDNA Resource Center (#CEM100TN00). M1R-CHOk1 cells were grown in Ham’s F12 Medium (ThermoFisher #21765029) supplemented with 10% fetal bovine serum (Brazilian origin, ThermoFisher #10270106), 100 units/mL Penicillin-Streptomycin, and 0.25 mg/mL Geneticin. HEK293A cells transiently transfected with GPR139 were used for additional pharmacological assessment of signaling pathways activated by GPR139. HEK239A cells were generously provided by Dr. Asuka Inoue, Tohoku University, Japan. HEK293A cells were grown in Dulbecco’s Modified Eagle Medium (ThermoFisher #31966047) supplemented with 10% dialyzed fetal bovine serum and 100 units/mL Penicillin-Streptomycin. Cell lines were maintained at 37 °C in humidified incubator equilibrated with 5% CO2.
The G protein dissociation assay developed by the lab of Kirill A. Martemyanov was used to measure the coupling of multiple G proteins by GPR139[57]. The assay was performed as described previously with minor modifications. HEK293A cells were reverse transfected 20–24 h prior to assay. 50,000 cells were plated in each well of white opaque tissue culture treated 96-well plates (PerkinElmer #6005680) previously coated with poly-D-lysine. Transfection solutions were prepared as described, and 10 µL transfection solution was mixed with 100 µL cells in each well. The cells in each well were transfected with 18.9 ng GPR139, 6.3 ng Venus 1-155 Gγ2, 6.3 ng Venus 159-239 Gβ1, 6.3 ng masGRK3ct-NanoLuc and 12.6 ng Gαi2, 12.6 ng Gαi3, 12.6 ng GαoA, 12.6 ng Gαq or 25.2 ng Gα12 using 375 nL Lipofectamine 2000 Transfection Reagent. Transfections with Gαq and Gα12 contained 6.3 ng DNA of the active subunit S1 of pertussis toxin (PTX-S1). Each transfection was normalized to 150 ng total DNA with pcDNA3.1. The BRET biosensors were a kind gift from the Martemyanov lab. On the day of the experiment the cells were washed with HEPES buffer. Test compounds were diluted in HEPES buffer from DMSO stocks (final DMSO concentration of maximally 0.3%). NanoLuc Luciferase substrate NanoGlo—furimazine (Promega #N1120) was diluted 1000-fold (final) in HEPES buffer. NanoGlo and test compounds were added, and measurements were performed after 10 s for Gi3, 15 s for Gi2 and GoA, 20 s for Gq, and 90 s for G12—the timepoint where maximal signal occurred with each G protein, ensuring proper determination of the potency for the G protein coupling. Simultaneous dual emission was measured at 535 nm and 475 nm on LUMIstar Omega Microplate Reader (BMG Labtech) at room temperature. The BRET ratio of 535 nm/475 nm (Venus/NanoLuc), reflecting the dissociation of the G protein heterotrimer, was used to determine the G protein activation. The basal BRET ratio obtained with buffer condition was subtracted from the absolute BRET ratio at a given test compound concentration, and the responses were normalized to the one obtained with 10 µM JNJ-63533054 for the activation of Gi2.
Pharmacological data and statistical analyses were performed in GraphPad Prism v9–10 (Graphpad Software Inc., San Diego, CA), which are also specifically described in the figure and table legends. […]

Row | Structure (SMILES) | Emax | EC50 | G protein activation, G12 (log [compound] M -4.5) | G protein activation, G12 (log [compound] M -5.0) | G protein activation, G12 (log [compound] M -5.5) | G protein activation, G12 (log [compound] M -6.0) | G protein activation, G12 (log [compound] M -6.5) | G protein activation, G12 (log [compound] M -7.0) | G protein activation, G12 (log [compound] M -7.5) | G protein activation, G12 (log [compound] M -8.0) | G protein activation, G12 (log [compound] M -4.5, listed as JNJ (S)) | G protein activation, G12 (log [compound] M -5.0, listed as JNJ (S)) | G protein activation, G12 (log [compound] M -5.5, listed as JNJ (S)) | G protein activation, G12 (log [compound] M -6.0, listed as JNJ (S)) | G protein activation, G12 (log [compound] M -6.5, listed as JNJ (S)) | G protein activation, G12 (log [compound] M -7.0, listed as JNJ (S)) | G protein activation, G12 (log [compound] M -7.5, listed as JNJ (S)) | G protein activation, G12 (log [compound] M -8.0, listed as JNJ (S))
1 | Cc1cscc1-c1nc(CC(=O)N[C@H](C)c2ccccc2)no1 [1.1(R)] | 51 ± 4% | 794 nM | 43 % of JNJ-63533054 at Gi2 and 44 % of JNJ-63533054 at Gi2 and 51 % of JNJ-63533054 at Gi2 | 42 % of JNJ-63533054 at Gi2 and 36 % of JNJ-63533054 at Gi2 and 51 % of JNJ-63533054 at Gi2 | 35 % of JNJ-63533054 at Gi2 and 29 % of JNJ-63533054 at Gi2 and 39 % of JNJ-63533054 at Gi2 | 31 % of JNJ-63533054 at Gi2 and 23 % of JNJ-63533054 at Gi2 and 34 % of JNJ-63533054 at Gi2 | 19 % of JNJ-63533054 at Gi2 and 12 % of JNJ-63533054 at Gi2 and 22 % of JNJ-63533054 at Gi2 | 6 % of JNJ-63533054 at Gi2 and 6.57 % of JNJ-63533054 at Gi2 and 15 % of JNJ-63533054 at Gi2 | 3 % of JNJ-63533054 at Gi2 and 4 % of JNJ-63533054 at Gi2 and 9 % of JNJ-63533054 at Gi2 | -4.59 % of JNJ-63533054 at Gi2 and 2 % of JNJ-63533054 at Gi2 and 6 % of JNJ-63533054 at Gi2 |  |  |  |  |  |  |  | 
2 | Cc1cscc1-c1nc(CC(=O)N[C@@H](C)c2ccccc2)no1 [1.1(S)] | 54 ± 3% | 12.6 nM | 60 % of JNJ-63533054 at Gi2 (2×) and 52 % of JNJ-63533054 at Gi2 | 54 % of JNJ-63533054 at Gi2 and 46 % of JNJ-63533054 at Gi2 and 58 % of JNJ-63533054 at Gi2 | 51 % of JNJ-63533054 at Gi2 and 44 % of JNJ-63533054 at Gi2 and 56 % of JNJ-63533054 at Gi2 | 52 % of JNJ-63533054 at Gi2 and 45 % of JNJ-63533054 at Gi2 and 55 % of JNJ-63533054 at Gi2 | 47 % of JNJ-63533054 at Gi2 and 43 % of JNJ-63533054 at Gi2 and 53 % of JNJ-63533054 at Gi2 | 46 % of JNJ-63533054 at Gi2 and 39 % of JNJ-63533054 at Gi2 and 52 % of JNJ-63533054 at Gi2 | 36 % of JNJ-63533054 at Gi2 and 32 % of JNJ-63533054 at Gi2 and 42 % of JNJ-63533054 at Gi2 | 22 % of JNJ-63533054 at Gi2 and 19 % of JNJ-63533054 at Gi2 and 27 % of JNJ-63533054 at Gi2 |  |  |  |  |  |  |  | 
3 | C[C@@H](NC(=O)CNC(=O)c1cccc(Cl)c1)c1ccccc1 [JNJ(R), reference compound] | 48 ± 3% | 3980 nM | 45 % of JNJ-63533054 at Gi2 and 42 % of JNJ-63533054 at Gi2 and 41 % of JNJ-63533054 at Gi2 | 37 % of JNJ-63533054 at Gi2 and 34 % of JNJ-63533054 at Gi2 and 33 % of JNJ-63533054 at Gi2 | 24 % of JNJ-63533054 at Gi2 (2×) and 19 % of JNJ-63533054 at Gi2 | 13 % of JNJ-63533054 at Gi2 and 11 % of JNJ-63533054 at Gi2 and 9 % of JNJ-63533054 at Gi2 | 7 % of JNJ-63533054 at Gi2 and 5 % of JNJ-63533054 at Gi2 and 2.85 % of JNJ-63533054 at Gi2 | 1.33 % of JNJ-63533054 at Gi2 and 4 % of JNJ-63533054 at Gi2 and 0.154 % of JNJ-63533054 at Gi2 | 0.474 % of JNJ-63533054 at Gi2 and 6 % of JNJ-63533054 at Gi2 and 1.7 % of JNJ-63533054 at Gi2 | -0.892 % of JNJ-63533054 at Gi2 and 6 % of JNJ-63533054 at Gi2 and 2.38 % of JNJ-63533054 at Gi2 |  |  |  |  |  |  |  | 
4 | CC(NC(=O)CNC(=O)c1cccc(Cl)c1)c1ccccc1 (stereo not shown) [JNJ-63533054, reference compound] | 57 ± 1% | 25.1 nM |  |  |  |  |  |  |  |  | 60 % of JNJ-63533054 at Gi2 (2×) and 57 % of JNJ-63533054 at Gi2 | 55 % of JNJ-63533054 at Gi2 and 54 % of JNJ-63533054 at Gi2 and 57 % of JNJ-63533054 at Gi2 | 53 % of JNJ-63533054 at Gi2 and 55 % of JNJ-63533054 at Gi2 and 54 % of JNJ-63533054 at Gi2 | 50 % of JNJ-63533054 at Gi2 and 51 % of JNJ-63533054 at Gi2 and 53 % of JNJ-63533054 at Gi2 | 52 % of JNJ-63533054 at Gi2 and 46 % of JNJ-63533054 at Gi2 and 48 % of JNJ-63533054 at Gi2 | 47 % of JNJ-63533054 at Gi2 and 42 % of JNJ-63533054 at Gi2 and 38 % of JNJ-63533054 at Gi2 | 32 % of JNJ-63533054 at Gi2 and 33 % of JNJ-63533054 at Gi2 and 26 % of JNJ-63533054 at Gi2 | 22 % of JNJ-63533054 at Gi2 and 21 % of JNJ-63533054 at Gi2 and 16 % of JNJ-63533054 at Gi2
